Legend:
Alopecurus = test: Post-emergence greenhouse pot trial, annual blackgrass (Example I, Table I); format: in vivo, annual blackgrass (Alopecurus); conditions: greenhouse pots, 4 weeks
Procedure: (§1) Seeds of weed grasses were sown in pots filled with loamy soil and placed in the greenhouse for germination and emergence. As soon as the plants had developed 3 or 4 leaves, they were sprayed with wettable powder formulations, suspended in water, of compounds according to the invention.
(§2) The results and also the results of all following examples were evaluated 4 weeks later according to the following scheme:
(§3) 4 is still considered an acceptable herbicidal effect in weeds and a satisfactory preserving effect in crop plants (cf. Bolle, Nachrichtenblatt des Deutschen Pflanzenschutzdienstes 16, 1964, pages 92-94).
(§4) Effect on weed grasses in a post-emergence trial in pots
(§5) in the greenhouse (Evaluation scheme)

Digitaria = test: Post-emergence greenhouse pot trial, Digitaria (Example I, Table I); format: in vivo; conditions: greenhouse pots, 4 weeks
Procedure: as §1, §2, §3, §4, §5

Echinochloa = test: Post-emergence greenhouse pot trial, Echinochloa (Example I, Table I); format: in vivo; conditions: greenhouse pots, 4 weeks
Procedure: as §1, §2, §3, §4, §5

Setaria = test: Post-emergence greenhouse pot trial, Setaria (Example I, Table I); format: in vivo; conditions: greenhouse pots, 4 weeks
Procedure: as §1, §2, §3, §4, §5

Lolium = test: Post-emergence greenhouse pot trial, Lolium (Example I, Table I); format: in vivo; conditions: greenhouse pots, 4 weeks
Procedure: as §1, §2, §3, §4, §5

weed grasses = test: Pre-emergence greenhouse pot trial, weed grasses overall (Example V); format: in vivo; conditions: in words
Procedure: as §2
In a greenhouse the compounds to be tested were sprayed on the surface of the soil directly after sowing. […] Dicotyledonous crop plants (the same as used in Example I) were not damaged by the applied amounts.
Effect on weed grasses in a pre-emergence process (evalua-
tion scheme) experiment in pots in the greenhouse.

wild oat = test: Post-emergence trial in the greenhouse, wild oat (Example VII, Table VII); format: in vivo; conditions: 31 kg/hectare, emulsion concentrate, 4 weeks after treatment
Procedure: as §2
In a greenhouse some of the compounds of the invention were sprayed on plants of wild oat, the compounds being used as emulsion concentrates.
(§6) Post-emergence trial in the greenhouse
Effect on wild oat 4 weeks after treatment
Dose 31 kg/hectare of active compound (as emulsion

barnyard grass = test: Post-emergence trial in the greenhouse, barnyard grass (Example VIII, Table VIII); format: in vivo; conditions: 31 kg/hectare, wettable powder, 4 weeks after treatment, 3 to 4 leaf-stage
Procedure: as §2
In a similar trial some of the compounds of the invention were sprayed in the form of wettable powder formulations on barnyard grass in the 3 to 4 leaf-stage.
as §6
Effect on barnyard grass 4 weeks after treatment
Dose 31 kg/hectare of active compound (as wettable

SMILES | Effect on weed grasses (evaluation scheme number), Alopecurus (Alopecurus; 0.15 kg/hectare) | Effect on weed grasses (evaluation scheme number), Alopecurus (Alopecurus; 0.62 kg/hectare) | Effect on weed grasses (evaluation scheme number), Alopecurus (Alopecurus; 2.5 kg/hectare) | Effect on weed grasses (evaluation scheme number), Digitaria (Digitaria; 0.15 kg/hectare) | Effect on weed grasses (evaluation scheme number), Digitaria (Digitaria; 0.62 kg/hectare) | Effect on weed grasses (evaluation scheme number), Digitaria (Digitaria; 2.5 kg/hectare) | Effect on weed grasses (evaluation scheme number), Echinochloa (Echinochloa; 0.15 kg/hectare) | Effect on weed grasses (evaluation scheme number), Echinochloa (Echinochloa; 0.62 kg/hectare) | Effect on weed grasses (evaluation scheme number), Echinochloa (Echinochloa; 2.5 kg/hectare) | Effect on weed grasses (evaluation scheme number), Setaria (Setaria; 0.15 kg/hectare) | Effect on weed grasses (evaluation scheme number), Setaria (Setaria; 0.62 kg/hectare) | Effect on weed grasses (evaluation scheme number), Setaria (Setaria; 2.5 kg/hectare) | Effect on weed grasses (evaluation scheme number), Lolium (Lolium; 0.15 kg/hectare) | Effect on weed grasses (evaluation scheme number), Lolium (Lolium; 0.62 kg/hectare) | Effect on weed grasses (evaluation scheme number), Lolium (Lolium; 2.5 kg/hectare) | effect in pre-emergence treatment compared with comparative compound A (weed grasses) | effect (number) on wild oat (wild oat) | effect (number) on barnyard grass (barnyard grass)
CCOC(=O)C(C)Oc1ccc(Oc2ccc(Br)cc2Cl)cc1 (stereo not drawn) [Compound 1b, 4-(2'-chloro-4'-bromophenoxy)-α-phenoxy-propionic acid ethyl ester] | 6 (75.0 to <85.0) | 1 (100) | 1 (100) | 7 (65.0 to <75.0) | 1 (100) | 1 (100) | 1 (100) | 1 (100) | 1 (100) | 1 (100) | 1 (100) | 1 (100) | 6 (75.0 to <85.0) | 2 (97.5 to <100) | 1 (100) | Analogous results | 1 (100) | –
CC(Oc1ccc(Oc2ccc(Br)cc2Cl)cc1)C(=O)O (stereo not drawn) [Compound 2d] | – | – | – | – | – | – | – | – | – | – | – | – | – | – | – | – | – | 1 (100)
CC(Oc1ccc(Oc2ccc(Br)cc2Cl)cc1)C(=O)O (stereo not drawn) [Compound 2b] | – | – | – | – | – | – | – | – | – | – | – | – | – | – | – | – | – | 3 (95.0 to <.97.5)
CC(C)COC(=O)C(C)Oc1ccc(Oc2ccc(Br)cc2Cl)cc1 (stereo not drawn) [Compound 1e, 4-(2'-chloro-4'-bromophenoxy)-α-phenoxy-propionic acid isobutyl ester] | – | – | – | – | – | – | – | – | – | – | – | – | – | – | – | – | 2 (97.5 to <100) | –
CCCCOC(=O)C(C)Oc1ccc(Oc2ccc(Br)cc2Cl)cc1 (stereo not drawn) [Compound 1d, 4-(2'-chloro-4'-bromophenoxy)-α-phenoxy-propionic acid n-butyl ester] | 3 (95.0 to <.97.5) | 2 (97.5 to <100) | 1 (100) | 6 (75.0 to <85.0) | 1 (100) | 1 (100) | 2 (97.5 to <100) | 1 (100) | 1 (100) | 2 (97.5 to <100) | 1 (100) | 1 (100) | 6 (75.0 to <85.0) | 4 (90.0 to <95.0) | 2 (97.5 to <100) | Analogous results | 1 (100) | –
CC(Oc1ccc(Oc2ccc(Br)cc2Cl)cc1)C(=O)O (stereo not drawn) [Compound 2c] | – | – | – | – | – | – | – | – | – | – | – | – | – | – | – | – | – | 1 (100)
CC(C)OC(=O)C(C)Oc1ccc(Oc2ccc(Br)cc2Cl)cc1 (stereo not drawn) [Compound 1c, 4-(2'-chloro-4'-bromophenoxy)-α-phenoxy-propionic acid isopropyl ester] | 6 (75.0 to <85.0) | 3 (95.0 to <.97.5) | 1 (100) | 7 (65.0 to <75.0) | 4 (90.0 to <95.0) | 1 (100) | 1 (100) | 1 (100) | 1 (100) | 3 (95.0 to <.97.5) | 1 (100) | 1 (100) | 5 (85.0 to <90.0) | 4 (90.0 to <95.0) | 3 (95.0 to <.97.5) | Analogous results | 1 (100) | 1 (100)
CC(Oc1ccc(Oc2ccc(Br)cc2Cl)cc1)C(=O)O (stereo not drawn) [Compound 2e] | – | – | – | – | – | – | – | – | – | – | – | – | – | – | – | – | – | 4 (90.0 to <95.0)

Reference: patent publication US4370489A, “Herbicidal compounds” (Hoechst Aktiengesellschaft, priority 1976, dated 1983)
